Measurements taken from patent US12660819B2, “Herbicidal derivatives” (SYNGENTA CROP PROTECTION AG, priority 2020, dated 2026).

Columns and labels:
Assay type in all cases: in vivo
[1] = tested on: Echinochloa crus-galli (ECHCG); test: Pre-emergence Test (glasshouse, percentage damage to the plant); conditions: 1000 g/ha unless otherwise stated, five-point scale
[2] = tested on: Echinochloa crus-galli (ECHCG); test: Post-emergence Test (glasshouse, percentage damage to the plant); conditions: post-emergence spray, 1000 g/ha unless otherwise stated, evaluated after 13 days
Summary of the method: (§1)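 Damage was rated 13 days after treatment and expressed on a five-point scale: 5=81-100%, 4=61-80%, 3=41-60%, 2=21-40%, 1=0-20%. Spray was applied at 1000 g/ha unless otherwise stated, from acetone/water (50:50) with 0.5% Tween 20, to sown pots.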

[3] = tested on: Ipomoea hederacea (IPOHE); test: as above; conditions: post-emergence spray, 1000 g/ha unless otherwise stated, evaluated after 13 days
Summary of the method: (§2)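 Seeds are sown in standard soil under controlled glasshouse conditions. The pots are then sprayed at 1000 g/ha, unless otherwise stated, with compound in acetone/water (50:50) containing 0.5% Tween 20. After 13 days further growth, percentage plant damage is scored from 1 (0-20%) to 5 (81-100%).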

Zea mays (ZEAMX) [4] = test: as above; conditions: post-emergence spray, 1000 g/ha unless otherwise stated, evaluated after 13 days
Summary of the method: as §2

[5] = tested on: Amaranthus retoflexus (AMARE); test: as above; conditions: post-emergence spray, 1000 g/ha unless otherwise stated, evaluated after 13 days
Summary of the method: as §1

[6] = tested on: Abutilon theophrasti (ABUTH); test: as above; conditions: post-emergence spray, 1000 g/ha unless otherwise stated, evaluated after 13 days
Summary of the method: as §1

Setaria faberi (SETFA) [7] = test: as above; conditions: post-emergence spray, 1000 g/ha unless otherwise stated, evaluated after 13 days
Summary of the method: as §2

[8] = tested on: Ipomoea hederacea (IPOHE); test: Pre-emergence Test (glasshouse, percentage damage to the plant); conditions: 1000 g/ha unless otherwise stated, five-point scale
[9] = tested on: Abutilon theophrasti (ABUTH); test: as above; conditions: 1000 g/ha unless otherwise stated, five-point scale
[10] = tested on: Amaranthus retoflexus (AMARE); test: as above; conditions: 1000 g/ha unless otherwise stated, five-point scale
Zea mays (ZEAMX) [11] = test: as above; conditions: 1000 g/ha unless otherwise stated, five-point scale
Setaria faberi (SETFA) [12] = test: as above; conditions: 1000 g/ha unless otherwise stated, five-point scale

Compound | percentage damage to the plant, ECHCG [1] | Post-emergence Test ECHCG, percentage damage to the plant (five-point scale) [2] | Post-emergence Test IPOHE, percentage damage to the plant (five-point scale) [3] | Post-emergence Test ZEAMX, percentage damage to the plant (five-point scale) (Zea mays (ZEAMX) [4]) | Post-emergence Test AMARE, percentage damage to the plant (five-point scale) [5] | Post-emergence Test ABUTH, percentage damage to the plant (five-point scale) [6] | Post-emergence Test SETFA, percentage damage to the plant (five-point scale) (Setaria faberi (SETFA) [7]) | percentage damage to the plant, IPOHE [8] | percentage damage to the plant, ABUTH [9] | percentage damage to the plant, AMARE [10] | percentage damage to the plant, ZEAMX (Zea mays (ZEAMX) [11]) | percentage damage to the plant, SETFA (Setaria faberi (SETFA) [12])
CCn1c(C)c(-c2cccc(Cl)c2)c(=O)c(C(=O)O)c1-c1ccc(Cl)c(Cl)n1 [Compound 149, 5-(3-chlorophenyl)-2-(5,6-dichloro-2-pyridyl)-1-ethyl-6-methyl-4-oxo-pyridine-3-carboxylic acid] | 0 | 0 | 2 (2=21-40%) | 1 (1=0-20%) | 1 (1=0-20%) | 1 (1=0-20%) | 0 | 0 | 0 | 0 | 0 | 0
CCn1c(C)c(-c2cccc(C(F)(F)F)c2)c(=O)c(C(=O)O)c1-c1ccc(Cl)c(Cl)n1 [Compound 150, 2-(5,6-dichloro-2-pyridyl)-1-ethyl-6-methyl-4-oxo-5-[3-(trifluoromethyl)phenyl] pyridine-3-carboxylic acid] | 0 | 1 (1=0-20%) | 2 (2=21-40%) | 1 (1=0-20%) | 0 | 0 | 1 (1=0-20%) | 0 | 0 | 0 | 1 (1=0-20%) | 0
CCn1c(C)c(-c2ccc(C(F)(F)F)cc2)c(=O)c(C(=O)O)c1-c1ccc(Cl)c(Cl)n1 [Compound 151, 2-(5,6-dichloro-2-pyridyl)-1-ethyl-6-methyl-4-oxo-5-[4-(trifluoromethyl)phenyl] pyridine-3-carboxylic acid] | 4 (4=61-80%) | 3 (3=41-60%) | 3 (3=41-60%) | 2 (2=21-40%) | 0 | 3 (3=41-60%) | 4 (4=61-80%) | 5 (5=81-100%) | 1 (1=0-20%) | 1 (1=0-20%) | 2 (2=21-40%) | 4 (4=61-80%)
CCOC(=O)c1c(-c2ccc(F)c(F)c2)n(CC)c(C)c(-c2ccc(Cl)cc2)c1=O [Compound 152, ethyl 5-(4-chlorophenyl)-2-(3,4-difluorophenyl)-1-ethyl-6-methyl-4-oxo-pyridine-3-carboxylate] | 0 | 0 | 0 | 0 | 0 | 0 | 0 | 0 | 0 | 0 | 0 | 0
CCn1c(C)c(-c2ccc(Cl)cc2F)c(=O)c(C(=O)O)c1-c1ccc(Cl)c(Cl)c1 [Compound 153, 5-(4-chloro-2-fluoro-phenyl)-2-(3,4-dichlorophenyl)-1-ethyl-6-methyl-4-oxo-pyridine-3-carboxylic acid] | 5 (5=81-100%) | 5 (5=81-100%) | 5 (5=81-100%) | 5 (5=81-100%) | 5 (5=81-100%) | 5 (5=81-100%) | 5 (5=81-100%) | 4 (4=61-80%) | 5 (5=81-100%) | 5 (5=81-100%) | 4 (4=61-80%) | 5 (5=81-100%)
CCn1c(C)c(-c2ccc(Cl)cc2OC)c(=O)c(C(=O)O)c1-c1ccc(Cl)c(Cl)c1 [Compound 154, 5-(4-chloro-2-methoxy-phenyl)-2-(3,4-dichlorophenyl)-1-ethyl-6-methyl-4-oxo-pyridine-3-carboxylic acid] | 5 (5=81-100%) | 4 (4=61-80%) | 4 (4=61-80%) | 3 (3=41-60%) | 4 (4=61-80%) | 4 (4=61-80%) | 4 (4=61-80%) | 3 (3=41-60%) | 3 (3=41-60%) | 1 (1=0-20%) | 2 (2=21-40%) | 4 (4=61-80%)
CCn1c(C)c(-c2ccc(F)cc2C)c(=O)c(C(=O)O)c1-c1ccc(Cl)c(Cl)c1 [Compound 155, 2-(3,4-dichlorophenyl)-1-ethyl-5-(4-fluoro-2-methyl-phenyl)-6-methyl-4-oxo-pyridine-3-carboxylic acid] | 5 (5=81-100%) | 4 (4=61-80%) | 4 (4=61-80%) | 4 (4=61-80%) | 3 (3=41-60%) | 4 (4=61-80%) | 4 (4=61-80%) | 1 (1=0-20%) | 2 (2=21-40%) | 1 (1=0-20%) | 1 (1=0-20%) | 5 (5=81-100%)
CCn1c(C)c(-c2ccc(Cl)cc2C)c(=O)c(C(=O)O)c1-c1ccc(Cl)c(Cl)c1 [Compound 156, 5-(4-chloro-2-methyl-phenyl)-2-(3,4-dichlorophenyl)-1-ethyl-6-methyl-4-oxo-pyridine-3-carboxylic acid] | 5 (5=81-100%) | 4 (4=61-80%) | 4 (4=61-80%) | 4 (4=61-80%) | 3 (3=41-60%) | 4 (4=61-80%) | 4 (4=61-80%) | 1 (1=0-20%) | 2 (2=21-40%) | 1 (1=0-20%) | 0 | 4 (4=61-80%)
